Experiments:
active cathepsin B = target: T1, active cathepsin B (Homo sapiens, UniProt P07858); test: Active cathepsin B staining in human neuronal cultures; assay type: cell-based; settings: 10 μM for 3 days, vs control compound Z-FA
T1 construct: endogenous in cells

11-month Fischer rats = test: Passive avoidance task in 11-month Fischer rats (model of MCI and early dementia); assay type: in vivo, rat; settings: 27 mg/kg daily
Protocol: FIG. 2. The cathepsin B modulatory compound PADK improved learning and memory in 11-month Fischer rats, a model of mild cognitive impairment (MCI) and early dementia. A classic passive avoidance task to assess memory utilized a bi-sectioned apparatus consisting of a brightly-lit compartment and a dark compartment separated by a small door. […] In this figure, the female rats were injected daily with vehicle or 27 mg/kg PADK. Following each morning's injection, the rats were placed individually into the bright compartment and, after 10 s, the door was opened through which the rats typically entered immediately (3 min total time in apparatus/rat/day). Panel A: On the seventh injection day, latency time before entering the opened doorway was measured (pre-shock bars, mean±SEM), after which the door was closed to contain the animal in the dark compartment. A mild foot shock of 0.6 mA, 2 s duration, was then administered to the contained rat via the floor grid. Following the next day's injections, rats were again placed in the bright compartment and latency times measured after the door was opened (post-shock bars). […] Brains were removed after the behavior studies in order to assess cathepsin B levels.
In the 11-month Fischer rats, a model of MCI and early dementia, PADK improved passive avoidance memory. […]

[1] = tested on: human A53T α-synuclein transgenic mice; test: Open field test in A53T α-synuclein transgenic mice; assay type: in vivo, mouse; settings: A53T mice 7-8 months; 18 mg/kg/day for 11 days
Protocol: FIG. 5. The cathepsin B modulator PADK also has a behavioral effect during early α-synucleinopathy. Vehicle-treated and PADK in the model of early α-synucleinopathy, human A53T α-synuclein transgenic mice, 7-8 months old, were injected with vehicle or PADK (18 mg/kg/day) for 11 days and their locomotor activity was measured in the open field test (OFT) for two days, center and perimeter crossings were measured. No difference in center crossings was found on day 1 as compared to wild-type mice (left graph), thus an indication of pre-symptomatic early stage Parkinson's disease (PD) before typical locomotor deficits. However, center crossings are often used as a measure of altered anxiety in PD mice. […] The altered anxiety in the vehicle-treated A53T mice appears to be a selective effect since perimeter crossings on day 2 were unchanged (right graph).

C57BL/6 mice = test: Safety evaluation in PADK-injected C57BL/6 mice (synaptic markers, blood markers, behavior, organ histology); assay type: in vivo, mouse
Protocol: FIG. 11. Safety evaluation of PADK found no evidence of toxicity. […] Alanine aminotransferase (ALT) and blood urea nitrogen (BUN) measures in plasma were also unchanged (E), indicating no effect on major organs. […] Organ sections were H+E stained and tissue integrity was evaluated by a pathologist that was blinded to the treatment groups (G).
Additional safety evaluation tests with PADK were conducted. […] Blood markers were also unchanged, indicating no effect on major organs (FIG. 11E).

[2] = target: T2, 30-kDa active form of cathepsin B (Rattus norvegicus, UniProt P00787); test: Active cathepsin B immunoblot in brain, eye and skin after oral dosing in rats; assay type: in vivo
T2 construct: assessed by immunoblot to label the 30-kDa active form of cathepsin B; from tissue; host or cells: Fischer rat brain regions (A5); rat brain regions, eye and skin after oral dosing (A18); rat organotypic heart slice cultures (A17)
Protocol: FIG. 10. The modulatory compound PADK up-regulates active cathepsin B in brain, eyes, and skin after oral dosing in rats. […] Four different brain regions were dissected and homogenates prepared, and equal protein aliquots were assessed by immunoblot to label the 30-kDa active form of cathepsin B (FC=frontal cortex).

[3] = C57BL/6 mice, ip daily for 9 days
[4] = oral, peanut butter mixture, 15 mg/kg twice a day, 10 days

T2 sequence (P00787 80-333 limits assumed): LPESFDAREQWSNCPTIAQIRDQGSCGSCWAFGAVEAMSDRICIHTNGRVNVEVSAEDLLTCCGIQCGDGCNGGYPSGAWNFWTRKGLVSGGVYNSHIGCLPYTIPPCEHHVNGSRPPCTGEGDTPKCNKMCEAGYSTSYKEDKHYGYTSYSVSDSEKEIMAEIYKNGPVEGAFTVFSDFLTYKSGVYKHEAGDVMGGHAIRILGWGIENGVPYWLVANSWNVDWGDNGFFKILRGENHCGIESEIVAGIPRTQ

SMILES: C[C@H](NC(=O)[C@H](Cc1ccccc1)NC(=O)OCc1ccccc1)C(=O)C=[N+]=[N-] [PADK, N-carbobenzyloxy-L-phenylalanyl-L-alanyl-diazomethylketone]
- levels of active cathepsin B (active cathepsin B): increased levels of active cathepsin B
- passive avoidance behavior (latency post-shock) (11-month Fischer rats; day after 0.6 mA foot shock, vs vehicle, P=0.016): improve passive avoidance behavior
- latency time before entering the opened doorway, pre-shock (11-month Fischer rats; seventh injection day, vs vehicle-treated aged rats): no difference
- center crossings on day 2 (altered anxiety) [1]: did not consistently exhibit such a positive trend
- Alanine aminotransferase (ALT) in plasma (C57BL/6 mice; [3]): unchanged
- blood urea nitrogen (BUN) in plasma (C57BL/6 mice; [3]): unchanged
- synaptic markers (C57BL/6 mice; [3]): unchanged
- motor coordination rotarod test (C57BL/6 mice; prior behavioral tests): no adverse effects
- spatial memory using conditioned place preference (C57BL/6 mice; prior behavioral tests): no adverse effects
- organ tissue integrity (H+E stained sections, blinded pathologist) (C57BL/6 mice; various organs): scored as normal
- BBB crossing after oral dosing ([2]; inferred from enhanced active cathepsin B in brain regions after 10 days of 15 mg PADK/kg/0.5 day): crossing the BBB
- active cathepsin B in brain [2, 4]: up-regulate
- active cathepsin B in eye tissue [2, 4]: significant increases
- active cathepsin B in skin tissue [2, 4]: significant increases

Source: patent US20160136229A1, “MATERIALS FOR POSITIVE CATHEPSIN B MODULATION AND METHODS OF USE FOR TREATING MILD COGNITIVE IMPAIRMENT (MCI), EARLY DEMENTIA, A-SYNUCLEINOPATHY, TRAUMATIC BRAIN INJURY, CARDIOMYOPATHY, EYE DISEASE AND SKIN DAMAGE” (University of North Carolina at Pembroke, priority 2013, published 2016)
